Source: patent US4996227A, “3-(heteroarylalkyene)- and 3-(arylalkylene)-2,4(3H,5H)-heterocyclic diones as cancer chemotherapy drugs” (priority 1989, dated 1991)

Experiments:
[1] = test system: healthy mice; assay: Toxicology testing in healthy mice: hematology; format: in vivo; conditions: for Absolute Neutrophils / Hemoglobin / WBC: i.p.
Procedure: (§1) The purpose of this example was to determine approximate toxicity of the compound 3[(5-methyl-2-thienyl) methylene]-2,4(3H,5H)-furandione in healthy mice. The in vivo concentrations employed in the example were selected by using the in vitro results in the Human Tumor Stem Cell Assay as a guide. The compound was given to the mice by means of intra-peritoneal injection. In addition to a control group which was injected with the appropriate carrier solution without drug, three test groups with calculated plasma concentrations of 1, 10 and 100 mcg/ml (low, medium and high concentrations) were prepared. Based upon the results from Table 1, the three test groups represent low, medium and high concentrations of drug dosages. The highest concentration of 100 mcg/ml is about 10 times the predicted effective dose (in vivo) of tumoricidal activity. Each group contained eight animals. Blood was extracted from four animals in each group two days after the intraperitoneal injection and routine hematology (i.e., a hemoglobin concentration, a white blood cell count, and a neutrophil count) procedures were performed.
Half of the animals in each group were sacrificed after one week (Day 7), and the remaining animals in each group were sacrificed after two weeks (Day 14). Routine hematology was performed at the time of sacrifice.

[2] = test system: healthy mice; assay: Toxicology testing in healthy mice: pathological evaluation; format: in vivo
Procedure: as §1
As previously stated, half of the animals in each group were sacrificed after one week (Day 7), and the remaining animals were sacrificed after two weeks (Day 14). […]

[3] = test system: KS62 strain stem-cell human leukemia cells; assay: Inhibition of human leukemia cell growth in vitro, as done in Example 3; format: cell-based; conditions: Homo sapiens
Procedure: (§2) A conventionally available cell line (K562) derived from human chronic granulocytic leukemia was employed in an in vitro procedure. The leukemia cell line was cultured in a suspension of RPMI 1640 plus 10% fetal calf serum. All initial cell concentrations for the cultures were 0.65 times 10^5 cells/ml. Four separate suspension cultures were employed with the first suspension culture having no additions. The second suspension culture included 100 microliters of the solvent DMSO per 10 ml of culture (control). The third culture contained 1 ug/ml of 3[[5-methyl-2 thienyl]methylene]-2, 4 (3H, 5H) furandione and the fourth culture contained 1 ug/ml of 3[[3-methyl-2-thienyl]methylene]-2, 4 (3H, 5H) furandione. The cell concentration of each of the four cultures was determined. After three days and again after five days.
In this example, aliquots of 1.0, 5.0 and 10.0 mcg/ml of each of the family compounds was prepared and assayed against KS62 strain stem-cell human leukemia cells in an in vitro procedure as done in Example 3 above.

[4] = test system: K562 cells (human chronic granulocytic leukemia); assay: K562 human leukemia cell suspension culture, cell concentration; format: cell-based; conditions: 1 ug/ml
Procedure: In this example, 1 mcg/ml of 3[[5-methyl-2-thienyl]methylene]2, 4 (3H, 5H) furandione was compared to 1 mcg/ml of 3[[3-methyl-2-thienyl]methylene]2, 4 (3H, 5H) furandione.
as §2

[5] = high, 100 mcg/ml calculated plasma, Day 2
[6] = high, 100 mcg/ml calculated plasma, Day 7
[7] = high, 100 mcg/ml calculated plasma, Day 14
[8] = low, 1 mcg/ml calculated plasma, Day 2
[9] = low, 1 mcg/ml calculated plasma, Day 7
[10] = low, 1 mcg/ml calculated plasma, Day 14
[11] = medium, 10 mcg/ml calculated plasma, Day 2
[12] = medium, 10 mcg/ml calculated plasma, Day 7
[13] = medium, 10 mcg/ml calculated plasma, Day 14

Cc1ccc(C=C2C(=O)COC2=O)s1 [Compound 4, 3[(5-methyl-2-thienyl)methylene]2,4(3H,5H)-furandione]
absolute neutrophil count, change ([1]; after one week): significant decrease in the absolute neutrophil count after one week, indicating suppression of bone marrow | total white blood cell count, change ([1]; all groups): slightly decreased from Day 2 to Day 7, the count increased in all groups from Day 7 to Day 14 | hemoglobin levels, change ([1]; all test groups, 14-day test period): no significant decreases in hemoglobin levels | myelosuppression in vivo ([1]; at drug level predicted by the in vitro assay): some myelosuppression in vivo | platelet count, change ([1]; blood smears): platelet count was not significantly decreased | Absolute Neutrophils [1, 5]: 5224 cells/ul | Hemoglobin [1, 5]: 13.2 g/100 ml | WBC [1, 5]: 9594 Cells/ul | Hemoglobin [1, 6]: 13.6 g/100 ml | WBC [1, 6]: 5775 Cells/ul | Absolute Neutrophils ([1]; high, 100 mcg/ml calculated plasma, Day 7 (text SD=622), 4 (3H, 5H) FURANDIONE): 1167 cells/ul | Absolute Neutrophils ([1]; high, 100 mcg/ml calculated plasma, Day 7 (text SD=622), listed as tested furandione compound): 1,167 cells/ul | Absolute Neutrophils [1, 7]: 2025 cells/ul | Hemoglobin [1, 7]: 13.9 g/100 ml | WBC [1, 7]: 12,175 Cells/ul | Absolute Neutrophils [1, 8]: 2869 cells/ul | Hemoglobin [1, 8]: 13.7 g/100 ml | WBC [1, 8]: 7000 Cells/ul | Hemoglobin [1, 9]: 14.25 g/100 ml | WBC [1, 9]: 6562 Cells/ul | Absolute Neutrophils ([1]; low, 1 mcg/ml calculated plasma, Day 7 (text SD=942), 4 (3H, 5H) FURANDIONE): 1731 cells/ul | Absolute Neutrophils ([1]; low, 1 mcg/ml calculated plasma, Day 7 (text SD=942), listed as tested furandione compound): 1,731 cells/ul | Hemoglobin [1, 10]: 13.6 g/100 ml | WBC [1, 10]: 9675 Cells/ul | Absolute Neutrophils ([1]; low, 1 mcg/ml calculated plasma, Day 14, three animals): 2183 cells/ul | neutrophil difference vs control ([1]; low, 1 mcg/ml, Day 7): no significant difference between the control and the low concentration group | Absolute Neutrophils [1, 11]: 3946 cells/ul | Hemoglobin [1, 11]: 13.6 g/100 ml | WBC [1, 11]: 7787 Cells/ul | Hemoglobin [1, 12]: 13.9 g/100 ml | WBC [1, 12]: 5812 Cells/ul | Absolute Neutrophils ([1]; medium, 10 mcg/ml calculated plasma, Day 7 (text SD=492), 4 (3H, 5H) FURANDIONE): 1009 cells/ul | Absolute Neutrophils ([1]; medium, 10 mcg/ml calculated plasma, Day 7 (text SD=492), listed as tested furandione compound): 1,009 cells/ul | Hemoglobin [1, 13]: 13.6 g/100 ml | WBC [1, 13]: 8700 Cells/ul | Absolute Neutrophils ([1]; medium, 10 mcg/ml calculated plasma, Day 14, three animals): 1256 cells/ul | P, neutrophil difference vs control ([1]; medium, 10 mcg/ml, Day 7): < 0.05 | pathology of organs, bone, brain, etc. ([2]; all dose groups, 7 or 14 days): not remarkably altered within the testing period | pathology of organs, bone, etc., vs low concentration and control groups ([2]; high concentrations): do not appear to affect any of the organs, bone, etc. of the test animals to any lesser or greater degree than the low concentration drug group or the control group | inhibition at 1 µg/mL ([3]; 1.0 mcg/ml): 32% | inhibition at 5 µg/mL ([3]; 5.0 mcg/ml): 97% | inhibition at 10 µg/mL ([3]; 10.0 mcg/ml): 100% | effect on leukemia culture [4]: very effective against the leukemia culture as demonstrated by the remarkable decrease in cell concentration | Cell Conc. ([4]; 3 Days): 70000 mL⁻¹ | Cell Conc. ([4]; 5 Days): 50000 mL⁻¹
